Measurements: US20070207984A1, “Cyclohexylamino Benzene, Pyridine, and Pyridazine Derivatives” (priority 2006, published 2007)

Tested on: HSP-90 (heat shock protein 90)
Test: Determination of affinity for HSP-90 (elution from purine affinity column)
Format: binding
Set-up: key: A stands for very high; B for high; C for moderate
Conditions: purine affinity column loaded with organ tissue proteins; eluted with 20μM, 100 μM, and 500 μM of test compound; densitometry
Procedure: Affinity of test compounds for HSP-90 was determined as follows: Protein mixtures obtained from a variety of organ tissues (for example: spleen, liver and lung) were reversibly bound to a purine affinity column to capture purine-binding proteins, especially HSP-90. The purine affinity column was washed several times, and then eluted with 20μM, 100 μM, and 500 μM of test compound. Compounds of Formula I elute HP-90 in a dose-dependent manner vs. a control elution using dimethylsulfoxide. The elution profile of Formula I compounds was determined by 1-dimensional SDS polyacrylamide gel electrophoresis. Gels were stained with a fluorescent stain such as sypro ruby (a highly sensitive fluorescent protein stain that can readily detect less than 1 fmol of total protein, i.e., less than 0.04 ng for a 40 kDa protein) or silver nitrate. The gels were imaged using a standard flat bed gel imager and the amount of protein estimated by densitometry. The percent of HSP-90 protein eluted from the column at each concentration was determined and IC50 values were calculated from these estimates. The identity of a band containing HSP-90 was determined by protein sequencing using mass spectroscopy.
Compounds of the invention are inhibitors of HSP-90 (heat shock protein 90). Several exemplary compounds useful in the methods of the invention are listed below.

Compound | relative binding affinity to HSP-90
CC1(C)CC(=O)c2c(C(F)(F)F)nn(-c3ccc(C(N)=O)c(NC4CCC(OC(=O)CCNC(=O)[C@@H](N)CCCN)CC4)c3)c2C1.CS(=O)(=O)O.CS(=O)(=O)O (stereo partly drawn) | A
Cc1nn(-c2ccc(C(N)=O)c(NC3CCC(OC(=O)CCNC(=O)OC(C)(C)C)CC3)c2)c2c1C(=O)CC(C)(C)C2 (stereo not drawn) [drawing 94] | A
CS(=O)(=O)O.Cc1nn(-c2ccc(C(N)=O)c(NC3CCC(OC(=O)CCN)CC3)c2)c2c1C(=O)CC(C)(C)C2 (stereo not drawn) | A
CC1(C)CC(=O)c2c(C(F)(F)F)nn(-c3ccc(C(N)=O)c(NC4CCC(OC(=O)[C@@H](N)CCCCN)CC4)c3)c2C1.CS(=O)(=O)O.CS(=O)(=O)O (stereo partly drawn) | A
CC1(C)CC(=O)c2c(C(F)F)nn(-c3ccc(C(N)=O)c(N[C@H]4CC[C@H](O)CC4)c3)c2C1 [drawing 91] | A
Cc1nn(-c2ccc(C#N)c(Br)c2)c2c1C(=O)CC(C)(C)C2 [drawing 95] | C

Tested on: PC-3 cell proliferation
Test: Cell proliferation assay (WST-1), PC-3 cells
Format: cell-based
Conditions: Homo sapiens, WST-1 optical density at 450 nm, growth vs DMSO (100%) and 10 μM Actinomycin D (0%), read-out: inhibitory activity against PC-3 cell proliferation (IC50 range)
Procedure: A panel of cancer cell lines was obtained from the DCTP Tumor Repository, National Cancer Institute (Frederick, Md.) or ATCC (Rockville, Md.). Cell cultures were maintained in Hyclone RPMI 1640 medium (Logan, Utah) supplemented with 10% fetal bovine serum and 20 mM HEPES buffer, final pH 7.2, at 37° C. with a 5% CO2 atmosphere. Cultures were maintained at sub-confluent densities. Human umbilical vein endothelial cells (HUVEC) were purchased from Clonetics, a division of Cambrex (Walkersville, Md.). Cultures were established from cryopreserved stocks using Clonetics EGM-2 medium supplemented with 20 mM HEPES, final pH 7.2, at 37° C. with a 5% CO2 atmosphere.
For proliferation assays, cells were seeded with the appropriate medium into 96 well plates at 1,000-2,500 cells per well, depending on the cell line, and were incubated overnight. The following day, test compound, DMSO solution (negative control), or Actinomycin D (positive control) was added to the appropriate wells as 10× concentrated stocks prepared in phosphate buffered saline. The cell plates were then incubated for an additional 2-5 days, depending on the cell line, to allow proliferation to occur. To measure cell density, 50 μL of WST-1 solution (Roche Applied Science, IN) diluted 1:5 in phosphate buffered saline was added to each well, and the cells incubated for an additional 1-5 hrs., again depending on the cell line. Optical density was determined for each well at […] using a Tecan GeniosPro plate reader (RTP, NC). The percentage of cell growth was determined by comparing the cell growth in the presence of test compounds to the cells treated with DMSO vehicle (control, 100% growth) and cells treated with Actinomycin D (10 μM, 0% growth).
Immediately after the WST-1 determination, the medium was removed from the PC-3, NCI-H460 and HUVEC cell lines, and the plates stored at −80° C. Using these assay plates, relative amounts of DNA in each well were determined using the Cyquant DNA assay kit from […] (Eugene, Oreg.) following the manufacturer's directions. Results for each compound treatment were compared to DMSO vehicle control (100%) and 10 μM Actinomycin D treated cells (0%).
Several exemplary compounds useful in the methods of the invention are listed below.

Compound | IC50 [nM]
Cc1nn(-c2ccc(C(N)=O)c(NC3CCC(OC(=O)CCNC(=O)OC(C)(C)C)CC3)c2)c2c1C(=O)CC(C)(C)C2 (stereo not drawn) [drawing 88] | < 500
Cc1nn(-c2ccc(C#N)c(Br)c2)c2c1C(=O)CC(C)(C)C2 [drawing 89] | 5000 to 50000
CC1(C)CC(=O)c2c(C(F)(F)F)nn(-c3ccc(C(N)=O)c(NC4CCC(OC(=O)[C@@H](N)CCCCN)CC4)c3)c2C1 (stereo partly drawn) | < 500
Cc1nn(-c2ccc(C(N)=O)c(NC3CCC(OC(=O)CCN)CC3)c2)c2c1C(=O)CC(C)(C)C2 (stereo not drawn) | 500 to 5000
CC1(C)CC(=O)c2c(C(F)(F)F)nn(-c3ccc(C(N)=O)c(NC4CCC(OC(=O)CCNC(=O)[C@@H](N)CCCN)CC4)c3)c2C1 (stereo partly drawn) | < 500
CC1(C)CC(=O)c2c(C(F)F)nn(-c3ccc(C(N)=O)c(N[C@H]4CC[C@H](O)CC4)c3)c2C1 [drawing 85] | < 500
